Series [1] can be described thus: Two-photon action cross section. Type of series: physicochemical. As to conditions: EtOH/HEPES (9/1 v/v, pH 7.0). Here is the method:
Referring to FIG. 4(a), the Φδmax value of ACCu2 in EtOH/HEPES (9/1 v/v, pH 7.0) buffer was 32 GM at 880 nm, while those for FL and IR were 32 GM at 880 nm and 46 GM at 750 nm. The lower Φδmax value of ACCu2 at 750 nm than that of IR is because of decreased fluorescence resonance energy transfer (FRET) from IR to FL and it allows to obtain bright TPM images of cells and ^.tissues labeled with ACCu2.
The two-photon cross section (δ) was determined by the fe tosecond (fs) fluorescence measurement technique described in the literature (S. K. Lee, W. J. Yang, J. J. Choi, C. H. Kim, S.-J. Jeon, B. R. Cho, Org. Lett 2005, 7, 323-326.), ACCu2 was dissolved in 20 mM HEPES buffer (pH 7.0) to a concentration of 3.0×10^−6 M and then two-photon induced fluorescence intensity was measured at 740-940 nm using rhodamine 6G as a reference, whose two-photon property has been well characterized. The intensities of two-photon induced fluorescence of the reference and the sample were determined at the same excitation wavelength.
The two-photon cross section can be calculated from equation (3). δ=δr(SsΦrΦrcr)/(SrΦsΦscs) Equation (3)
wherein s and r stand for the sample, i.e., ACCu2, and the reference, respectively. S denotes the intensity of the signal collected using a CCD detector, Φ is the fluorescence quantum yield, Φ is the overall fluorescence collection efficiency of the experimental apparatus, c is the number density of molecules in solution, and δr is the two-photon cross section of the reference molecule.

Series [2] is described as follows: Absorption and fluorescence spectra, quantum yield, energy transfer. The series is classed as physicochemical. To be noted: for φ (fluorescence quantum yield): uncertainty ± 15%; for λmax^abs: one-photon absorption; for λmax^t1: one-photon emission. Here is the method:
Absorption spectra were recorded using the Hewlett-Packard 8453 diode array spectrophotometer and fluorescence spectra were measured using the Amico-Bowman series 2 luminescence spectrometer a 1 cm standard quartz cell. The fluorescence quantum yield was determined using coumarin 307 and rhodamine B as references according to the literature method (J. N. Demas, G. A. Crosby, J. Phys. Chem. 1971, 75, 991).
(hereinafter, ‘ACCu2’), a compound of [Chemical Formula 12] (hereinafter, ‘FL’) and a compound of [Chemical Formula 13] (hereinafter, ‘IR’) in 1,4-dioxane, DMF, ethanol, EtOH/HEPES (9:1) and HEPES buffer ([HEPES]=20 mM, pH 7.0). Excitation wavelength was 420 nm. The solubility of ACCu2 in HEPES buffer ([HEPES]=20 mM, pH 7.0) as determined by the fluorescence method described in the literature (Kim, H. M.; Choo, H. J.; Jung, S. Y.; Ko, Y. G.; Park, W. H.; Jeon, S. J.; Kim, C. H.; Joo, T. H.; Cho, B. R. Chem Bio Chem 2007, 8, 553) was 8.0 μM, which was sufficient to stain cells.
To assess the origin of the spectral changes, the energy transfer efficiency (ETE) was calculated using Equation (1). The ETE was 93.4%.
In Equation (1), AIR and AIR′ are the absorbances of the IR moiety and IR, respectively, and FIR and FIR′ are the emission intensities of the IR moiety and IR, respectively, upon excitation at 373 nm.
The antenna effect in the one-photon (OP) (or TP) mode was 3.0 (or 3.1). The antenna effect was calculated by dividing the area of emission from the FL moiety upon excitation of the IR moiety at 373 nm (or 750 nm in the TP mode) by that collected from the direct excitation of FL at 461 nm (or 880 nm in the […]).

On to `COCCOCCOCCOc1ccc2c(ccc3cc(C(=O)N4CCNCC4)c(=O)oc32)c1` [IR], for which the “Φδmax (two-photon action cross section)” value in series [1] (at 750 nm) is on record as 46 GM. The “φ (fluorescence quantum yield)” value in series [2] (1,4-Dioxane (0.164)) amounted to 0.080; in series [2] (DMF (0.386)), 0.070; in series [2] (EtOH (0.654)), 0.18; in series [2] (EtOH/HEPES (9:1)), 0.62; in series [2] (HEPES buffer 20 mM, pH 7.0), 1.00. The “λmax^abs” value was found to be 367 nm in series [2] (1,4-Dioxane (0.164)); 366 nm in series [2] (DMF (0.386)); 372 nm in series [2] (EtOH (0.654)); 373 nm in series [2] (EtOH/HEPES (9:1)); 375 nm in series [2] (HEPES buffer 20 mM, pH 7.0). In addition, the “λmax^t1” value in series [2] (1,4-Dioxane (0.164)) worked out at 445 nm; in series [2] (DMF (0.386)), 448 nm; in series [2] (EtOH (0.654)), 451 nm; in series [2] (EtOH/HEPES (9:1)), 460 nm; in series [2] (HEPES buffer 20 mM, pH 7.0), 468 nm.
Regarding `CN(C)c1ccc2cc3cc(C(=O)NCc4ccc(C(=O)O)cn4)c(=O)oc3cc2c1` [FL], the “Φδmax (two-photon action cross section)” value in series [1] (at 880 nm) is 32 GM. Moreover, the “φ (fluorescence quantum yield)” value in series [2] (1,4-Dioxane (0.164)) is listed as 0.77; in series [2] (DMF (0.386)) it was 0.29; in series [2] (EtOH (0.654)), 0.25; in series [2] (EtOH/HEPES (9:1)), 0.15; in series [2] (HEPES buffer 20 mM, pH 7.0) it was 0.0045. Besides, the “λmax^abs” value in series [2] (1,4-Dioxane (0.164)) was 438 nm; in series [2] (DMF (0.386)), 454 nm; in series [2] (EtOH (0.654)) it was 457 nm; in series [2] (EtOH/HEPES (9:1)) it was 461 nm; in series [2] (HEPES buffer 20 mM, pH 7.0), 452 nm. The “λmax^t1” value was 536 nm in series [2] (1,4-Dioxane (0.164)); 576 nm in series [2] (DMF (0.386)); 582 nm in series [2] (EtOH (0.654)); 587 nm in series [2] (EtOH/HEPES (9:1)); 590 nm in series [2] (HEPES buffer 20 mM, pH 7.0).

Values taken from patent US9248202B2, “Two-photon probe for detecting copper(II) ion and quantitative estimation of copper(II) ion in human tissue using the same” (Korea University Research and Business Foundation, priority 2014, dated 2016).
